PubChem BioAssay AID248 (DTP/NCI, 2004)
“And” between values parts separate entries of the source, which are not always exact repeats. Equal values may be shown once. Inconclusive results and toxic doses are left out.

Test system: L1210 leukemia ip in BDF1 mice, survival T/C
Test: NCI In Vivo Anticancer Drug Screen. Data for tumor model L1210 Leukemia (intraperitoneal) in B6D2F1 (BDF1) mice
Details: endpoint: mean survival time, higher = longer survival
Method in brief: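 Transplanted-tumor mice were given test agent; controls received vehicle only. Survival readings from the two groups were divided (treated over control).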

[1] = dose: 50.0 mg/kg/injection, schedule: Q01DX001 (ip), vehicle: other
[2] = dose: 200.0 mg/kg/injection, schedule: Q01DX001 (ip), vehicle: other
[3] = dose: 100.0 mg/kg/injection, schedule: Q01DX001 (ip), vehicle: Klucel (hydroxypropylcellulose) (HPC)

`CCCCN(CCCC)CC(O)c1ccccc1` (stereo unspecified) was tested, and the T/C (dose: 25.0 mg/kg/injection, schedule: Q01DX005 (ip), vehicle: saline) was 112 % of control, the T/C (dose: 25.0 mg/kg/injection, schedule: Q01DX009 (ip), vehicle: saline) was 95 % of control and the T/C (dose: 25.0 mg/kg/injection, schedule: Q04DX002 (ip), vehicle: saline with Tween-80) was 102 % of control. The T/C (dose: 50.0 mg/kg/injection, schedule: Q01DX005 (ip), vehicle: saline) was 108 % of control, the T/C (dose: 50.0 mg/kg/injection, schedule: Q01DX009 (ip), vehicle: saline) was 107 % of control and the T/C (dose: 50.0 mg/kg/injection, schedule: Q04DX002 (ip), vehicle: saline with Tween-80) was 106 % of control. The T/C (dose: 100.0 mg/kg/injection, schedule: Q01DX005 (ip), vehicle: saline) was 101 % of control and the T/C (dose: 100.0 mg/kg/injection, schedule: Q04DX002 (ip), vehicle: saline with Tween-80) was 93 % of control.
With `C[C@]12CCC(=O)C=C1CC[C@@H]1[C@@H]2C(=O)C[C@]2(C)C3=CC(=O)O[C@H]3C[C@@H]12` the T/C (dose: 25.0 mg/kg/injection, schedule: Q01DX015 (sc), vehicle: steriod suspending solution) was 117 % of control, the T/C (dose: 50.0 mg/kg/injection, schedule: Q01DX015 (sc), vehicle: steriod suspending solution) was 102 % of control and the T/C (dose: 100.0 mg/kg/injection, schedule: Q01DX001 (sc), vehicle: steriod suspending solution) was 94 % of control. The T/C (dose: 100.0 mg/kg/injection, schedule: Q01DX015 (sc), vehicle: steriod suspending solution) was 102 % of control, the T/C (dose: 200.0 mg/kg/injection, schedule: Q01DX001 (sc), vehicle: steriod suspending solution) was 103 % of control and the T/C (dose: 200.0 mg/kg/injection, schedule: Q01DX015 (sc), vehicle: steriod suspending solution) was 91 % of control. For the same molecule, the T/C (dose: 400.0 mg/kg/injection, schedule: Q01DX001 (sc), vehicle: steriod suspending solution) was 103 % of control, the T/C (dose: 400.0 mg/kg/injection, schedule: Q01DX015 (sc), vehicle: steriod suspending solution) was 97 % of control and the T/C (dose: 600.0 mg/kg/injection, schedule: Q01DX015 (sc), vehicle: steriod suspending solution) was 95 % of control.
In the case of `C=CCCCCCCCCCC(CCCCCC)C(=O)O` (stereo unspecified), the T/C (dose: 100.0 mg/kg/injection, schedule: Q01DX001 (ip), vehicle: saline with Tween-80) is reported as 101 % of control, the T/C (dose: 200.0 mg/kg/injection, schedule: Q01DX001 (ip), vehicle: saline with Tween-80) is reported as 111 % of control and the T/C (dose: 400.0 mg/kg/injection, schedule: Q01DX001 (ip), vehicle: saline with Tween-80) is reported as 92 % of control.
For `O=C1c2ccccc2C(=O)N1CC(O)CCl` (stereo unspecified), the T/C (dose: 50.0 mg/kg/injection, schedule: Q01DX009 (ip), vehicle: saline with Tween-80) was 93 % of control, the T/C (dose: 50.0 mg/kg/injection, schedule: Q04DX003 (ip), vehicle: saline with Tween-80) was 91 % of control and the T/C (dose: 100.0 mg/kg/injection, schedule: Q01DX009 (ip), vehicle: saline with Tween-80) was 93 % of control. For the same molecule, the T/C (dose: 100.0 mg/kg/injection, schedule: Q04DX003 (ip), vehicle: saline with Tween-80) was 102 % of control, the T/C (dose: 200.0 mg/kg/injection, schedule: Q01DX009 (ip), vehicle: saline with Tween-80) was 90 % of control and the T/C (dose: 200.0 mg/kg/injection, schedule: Q04DX003 (ip), vehicle: saline with Tween-80) was 96 % of control.
In the case of `CN(C)CCNc1ccccn1`, the T/C (dose: 75.0 mg/kg/injection, schedule: Q01DX001 (ip), vehicle: saline) is reported as 98 % of control and the T/C (dose: 150.0 mg/kg/injection, schedule: Q01DX001 (ip), vehicle: saline) is reported as 104 % of control.
In the case of `CC(=O)OCC(C)CCC(=O)C(C)C1C(=O)CC2CC3CC(OC(C)=O)CCC3(C)CC21C` (stereo unspecified), the T/C (dose: 100.0 mg/kg/injection, schedule: Q04DX002 (ip), vehicle: Klucel (hydroxypropylcellulose) (HPC)) is reported as 96 % of control, the T/C (dose: 200.0 mg/kg/injection, schedule: Q04DX002 (ip), vehicle: Klucel (hydroxypropylcellulose) (HPC)) is reported as 100 % of control and the T/C (dose: 400.0 mg/kg/injection, schedule: Q04DX002 (ip), vehicle: Klucel (hydroxypropylcellulose) (HPC)) is reported as 96 % of control.
In the case of `Cc1ccc(S(=O)(=O)N(SSN(c2ccccc2)S(=O)(=O)c2ccc(C)cc2)c2ccccc2)cc1`, the T/C (dose: 100.0 mg/kg/injection, schedule: Q04DX002 (ip), vehicle: carboxymethylcellulose (CMC)) is reported as 95 % of control and 98 % of control, the T/C (dose: 200.0 mg/kg/injection, schedule: Q04DX002 (ip), vehicle: carboxymethylcellulose (CMC)) is reported as 95 % of control and 101 % of control and the T/C (dose: 400.0 mg/kg/injection, schedule: Q04DX002 (ip), vehicle: carboxymethylcellulose (CMC)) is reported as 95 % of control and 106 % of control.
In the case of `O=c1ccc2cccc(O)c2[nH]1`, the T/C (dose: 100.0 mg/kg/injection, schedule: Q01DX001 (ip), vehicle: saline) is reported as 97 % of control, the T/C (dose: 200.0 mg/kg/injection, schedule: Q01DX001 (ip), vehicle: saline) is reported as 94 % of control and the T/C (dose: 400.0 mg/kg/injection, schedule: Q01DX001 (ip), vehicle: saline) is reported as 100 % of control.
With `CC(=O)C(Sc1ccccc1[N+](=O)[O-])C(C)=O.[Co]` the T/C [1] was 92 % of control, the T/C (dose: 100.0 mg/kg/injection, schedule: Q01DX001 (ip), vehicle: other) was 92 % of control and the T/C [2] was 92 % of control. The T/C (dose: 400.0 mg/kg/injection, schedule: Q01DX001 (ip), vehicle: other) was 100 % of control.
`S=C1NCc2ccccc2N1` was tested, and the T/C (dose: 12.5 mg/kg/injection, schedule: Q04DX003 (ip), vehicle: Klucel (hydroxypropylcellulose) (HPC)) was 93 % of control, the T/C (dose: 25.0 mg/kg/injection, schedule: Q04DX003 (ip), vehicle: Klucel (hydroxypropylcellulose) (HPC)) was 95 % of control and the T/C (dose: 50.0 mg/kg/injection, schedule: Q04DX003 (ip), vehicle: Klucel (hydroxypropylcellulose) (HPC)) was 103 % of control. For the same molecule, the T/C [3] was 102 % of control.
`CN(Cc1cnc2nc(N)nc(N)c2n1)c1ccc(C(=O)NC(CCC(=O)O)C(=O)O)c2ccccc12` (stereo unspecified) was tested, and the T/C (dose: 2.0 mg/kg/injection, schedule: Q01DX009 (ip), vehicle: saline) was 159 % of control, the T/C (dose: 2.0 mg/kg/injection, schedule: Q04DX003 (ip), vehicle: saline) was 120 % of control and the T/C (dose: 4.0 mg/kg/injection, schedule: Q01DX009 (ip), vehicle: saline) was 152 % of control and 172 % of control. For the same molecule, the T/C (dose: 4.0 mg/kg/injection, schedule: Q04DX003 (ip), vehicle: saline) was 122 % of control, the T/C (dose: 8.0 mg/kg/injection, schedule: Q01DX009 (ip), vehicle: saline) was 156 % of control and 160 % of control and the T/C (dose: 8.0 mg/kg/injection, schedule: Q04DX003 (ip), vehicle: saline) was 106 % of control. The T/C (dose: 13.0 mg/kg/injection, schedule: Q01DX009 (ip), vehicle: saline) was 123 % of control, the T/C (dose: 64.0 mg/kg/injection, schedule: Q04DX003 (ip), vehicle: saline) was 115 % of control and the T/C (dose: 128.0 mg/kg/injection, schedule: Q04DX003 (ip), vehicle: saline) was 101 % of control.
In the case of `O=C1OC(c2ccc(F)c3ccccc23)C2CCCCC12` (stereo unspecified), the T/C [3] is reported as 102 % of control, the T/C (dose: 200.0 mg/kg/injection, schedule: Q01DX001 (ip), vehicle: Klucel (hydroxypropylcellulose) (HPC)) is reported as 102 % of control and the T/C (dose: 400.0 mg/kg/injection, schedule: Q01DX001 (ip), vehicle: Klucel (hydroxypropylcellulose) (HPC)) is reported as 96 % of control.
For `NNc1nncc(-c2ccccc2)n1`, the T/C (dose: 25.0 mg/kg/injection, schedule: Q01DX001 (ip), vehicle: other) was 100 % of control, the T/C [1] was 103 % of control and the T/C [2] was 105 % of control.
With `Cc1ccc(NC(=O)Nc2cccc3ccccc23)cc1` the T/C (dose: 12.0 mg/kg/injection, schedule: Q01DX009 (ip), vehicle: gum acacia) was 108 % of control, the T/C (dose: 12.5 mg/kg/injection, schedule: Q04DX003 (ip), vehicle: gum acacia) was 91 % of control and the T/C (dose: 25.0 mg/kg/injection, schedule: Q01DX009 (ip), vehicle: gum acacia) was 103 % of control. For the same molecule, the T/C (dose: 25.0 mg/kg/injection, schedule: Q04DX003 (ip), vehicle: gum acacia) was 93 % of control, the T/C (dose: 50.0 mg/kg/injection, schedule: Q01DX009 (ip), vehicle: gum acacia) was 94 % of control and the T/C (dose: 50.0 mg/kg/injection, schedule: Q04DX003 (ip), vehicle: gum acacia) was 98 % of control.
For `Cc1ccccc1N(C=O)c1ccccc1C`, the T/C (dose: 50.0 mg/kg/injection, schedule: Q01DX Z (ip), vehicle: methylcellulose (MC)) was 111 % of control, the T/C (dose: 80.0 mg/kg/injection, schedule: Q01DX Z (ip), vehicle: methylcellulose (MC)) was 115 % of control and the T/C (dose: 125.0 mg/kg/injection, schedule: Q01DX Z (ip), vehicle: methylcellulose (MC)) was 98 % of control and 114 % of control. The T/C (dose: 180.0 mg/kg/injection, schedule: Q01DX Z (ip), vehicle: methylcellulose (MC)) was 115 % of control, the T/C (dose: 240.0 mg/kg/injection, schedule: Q01DX Z (ip), vehicle: methylcellulose (MC)) was 97 % of control and the T/C (dose: 250.0 mg/kg/injection, schedule: Q01DX Z (ip), vehicle: methylcellulose (MC)) was 93 % of control. The T/C (dose: 300.0 mg/kg/injection, schedule: Q01DX Z (ip), vehicle: methylcellulose (MC)) was 109 % of control, the T/C (dose: 360.0 mg/kg/injection, schedule: Q01DX Z (ip), vehicle: methylcellulose (MC)) was 100 % of control and the T/C (dose: 500.0 mg/kg/injection, schedule: Q01DX Z (ip), vehicle: methylcellulose (MC)) was 106 % of control. For the same molecule, the T/C (dose: 1000.0 mg/kg/injection, schedule: Q01DX Z (ip), vehicle: methylcellulose (MC)) was 98 % of control.
